Data: patent US8110399B2, “Stem cells of the islets of langerhans and their use in treating diabetes mellitus” (The General Hospital Corporation, priority 1999, dated 2012)

Experiments:
[1] = tested on: nestin-positive NIPs; assay: Intracellular Ca2+ concentration in single isolated NIPs; assay type: cell-based, human
Procedure: The application of GLP-1 amide to single, isolated […] elevates levels of intracellular Ca^2+ concentration ([Ca^2+]i). Cells were plated onto gridded coverslips to permit subsequent immunohistochemical staining of the same cells to test for nestin expression.

[2] = tested on: NIP cultures; assay: Immunocytochemical detection of differentiation of NIPs; assay type: cell-based, human; settings: for Idx-1 immunostaining / insulin immunostaining: NIP cultures expanded 7-10 days, then treated
Procedure: Nestin-positive pancreatic islet stem cells were analyzed for GLP-1R expression. Human islet tissue was obtained from the Juvenile Diabetes Research Center for Islet Transplantation, Harvard Medical School. NIPs were isolated as described previously (Zulewski, et al., 2001, Diabetes 50: 521). Briefly, islets were washed and cultured in RPMI 1640 medium containing serum, 11.1 mM glucose, antibiotics, sodium pyruvate, β-mercaptoethanol, and growth factors. Within several days, nestin-positive cells (identified immunocytochemically as described above) grew out from the islets. Later, these cells were cloned and expanded in medium containing 20 ng/ml of basic fibroblast growth factor and epidermal growth factor or 1000 units of recombinant human leukemia inhibitory factor. Incubation with GLP-1 was administered in the absence of serum and fresh peptide was added every 48 h without changing the medium.
Immunocytochemical detection of GLP-1R was performed using rabbit polyclonal antisera (Heller et al., supra) as follows. Cells cultured on Lab-Tek chamber slides (Nunc, Naperville, Ill.) or gridded coverslips (Bellco Glass, NJ) were fixed with 4% paraformaldehyde in PBS for 10 minutes at room temperature. After several rinses in PBS, cells were blocked with normal donkey serum for 30 minutes and incubated with primary antisera or pre-immune sera at 4° C. The following day, cells were rinsed with PBS and incubated with secondary antisera (donkey anti-rabbit and donkey anti-guinea pig) labeled with Cy-3 or Cy-2 for 1 hour at room temperature. After several washes, coverslips containing cells were mounted onto slides in mounting medium containing DAPI (Vector Laboratories, Burlingame, Calif.) which stains nuclei. Fluorescence images were obtained using a Zeiss epifluorescence microscope equipped with an Optronics TEC-470 CCD camera (Optronics Engineering, Goleta, Calif.) interfaced with a Powermac 7100. IP lab Spectrum software (Signal Analytics, Vienna, Va.) was used to acquire and analyze images.
NIPs were picked from islet cultures and expanded in growth medium containing bFGF plus EGF (passage 01) for 3-10 days (Zulewski et al., 2001 Diabetes 50: 521). In certain instances NIPOs that were expanded for 3-5 days were fixed and subjected to immunocytochemical detection of Nestin (Cy-3) and Insulin (Cy-2) as shown in FIG. 24A. […] Accordingly, treatment with Extendin-4 induced a 2- to 3-fold increase in insulin secretion (FIG. 25). However, in some culture wells, confluence alone was sufficient to initiate small amounts of insulin secretion.

[3] = tested on: partial pancreatectomy rat model of type 2 diabetes; settings: daily administration for 10 days post pancreatectomy; cited from earlier work
[4] = tested on: islet mass; assay: Islet mass after injection of GLP-1 into mice; assay type: in vivo; settings: in 48 hours
[5] = tested on: diabetic mice; settings: cited from earlier work

In the case of `[La+3]` [La^3+], the “[Ca2+]i increase mediated by GLP-1” value ([1]; extracellular La3+ 5 μM) is reported as “inhibited”.

In the case of `CCCCNC(=O)NS(=O)(=O)c1ccc(C)cc1` [tolbutamide], the “[Ca2+]i elevation” value ([1]; tolbutamide 100 μM) is reported as “stimulates [Ca^2+]i elevation”.

With “Extendin (9-39): peptide, a specific antagonist of GLP-1 (GLP-1R antagonist)” the “increase in [Ca2+]i mediated by GLP-1” value ([1]; pretreatment of single isolated NIPs with antagonist) was “prevents the increase”.

In the case of exendin-4 [Extendin-4], the Idx-1 immunostaining [2] is listed as “Idx-1 positive”, the insulin immunostaining [2] is listed as “a subset of cells became insulin positive” and the development of diabetes [3] is listed as “attenuated the development of diabetes”.

In the case of “glucagon-like peptide-1 (HDEFERHAEGTFTSDVSSYLEGQAAKEFIAWLVKGRG) [GLP-1, insulinotropic hormone glucagon-like peptide (GLP)-1 produced by the intestine]”, the “increase of islet mass” value [4] is reported as 2 fold, the “[Ca2+]i levels” value ([1]; basal (5.6 mM) glucose) is reported as “stimulates [Ca^2+]i levels” and the “[Ca2+]i levels” value ([1]; high (20 mM) glucose) is reported as “ineffective”. The Idx-1 immunostaining [2] was “Idx-1 positive”, the insulin immunostaining [2] was “a subset of cells became insulin positive” and the “nestin expression of the cultures” value ([2]; cultures treated with GLP-1) was “overall decrease in nestin expression”. For the same compound, the blood sugar levels [5] was “effectively lowers their blood sugar levels” and the insulin secretion [5] was “stimulates insulin secretion”.
